Results as given in patent US12447159B2 (AELIS FARMA, priority 2018, dated 2025).
“Also recorded” adds a separate entry of the source. Read-outs that look alike come from different tables or passages of the source.

Columns and labels:
[1] = biological target: T1, human CB1 (hCB1) receptor (Homo sapiens, UniProt P21554); assay: THC-induced increase in MAPK phosphorylation, HEK-293 cells transiently transfected with hCB1 (western blot, P-MAPK/MAPK); format: cell-based; conditions: THC 10 μM, 5 min; HEK-293 transiently expressing the hCB1
T1 construct: expressed in transfected cells; host or cells: HEK-293
T1 sequence (P21554 whole entry): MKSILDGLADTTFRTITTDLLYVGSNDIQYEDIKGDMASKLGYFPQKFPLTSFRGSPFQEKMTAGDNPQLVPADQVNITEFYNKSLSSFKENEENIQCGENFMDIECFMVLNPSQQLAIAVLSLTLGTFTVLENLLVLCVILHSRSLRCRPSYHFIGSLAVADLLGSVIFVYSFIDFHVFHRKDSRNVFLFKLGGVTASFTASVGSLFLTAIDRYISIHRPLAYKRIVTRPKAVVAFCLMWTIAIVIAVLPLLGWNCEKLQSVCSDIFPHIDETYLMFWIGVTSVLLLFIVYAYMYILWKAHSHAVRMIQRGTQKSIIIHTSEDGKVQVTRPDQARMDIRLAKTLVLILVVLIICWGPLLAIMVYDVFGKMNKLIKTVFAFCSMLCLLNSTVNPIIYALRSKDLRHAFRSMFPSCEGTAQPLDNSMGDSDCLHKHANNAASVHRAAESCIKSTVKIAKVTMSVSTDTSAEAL
Procedure: The difference in the concentrations of THC used in the two experiments is related to the different efficiency of transfection of hCB1 cDNA plasmid, which is stable in Experiment 1 and transient in Experiment 2.
MAPK phosphorylation (P-Erk1/2MAPK proteins) was measured by western blot. In experiment 1 the mitochondrial marker CoxIV and in experiment 2 the un-phosphorylated MAPK proteins were used as loading controls. The P-MAPK/CoxIV and P-MAPK/MAPK ratios were calculated and the data expressed as % of vehicle-treated cells.

[2] = test system: 85 receptors (CEREP High-throughput profile+4 steroid receptors+Cannabinoid type 2 receptor); assay: CEREP High-throughput binding profile (85 receptors)
From the text: The CEREP High-throughput profile consists of a broad collection of 80 transmembrane and soluble receptors, ion channels and G-Protein coupled receptors.

[3] = test system: THC-induced catalepsy; assay: THC-induced catalepsy (catalepsy bar test); format: in vivo; conditions: per os 3 h before THC 10 mg/kg; mice
Procedure: Measuring of the catalepsy induced by THC was started 30 min after THC injection.
Catalepsy was measured by the catalepsy bar test. The forepaws of mice were placed on a bar fixed horizontally at 3.5 cm from the bench surface. The latency for moving from the bar was recorded with a cut-off time fixed at 420 s (7 min). Each mouse was submitted to a maximum of four consecutive trials. The maximum latency shown at one trial was selected as the measure of catalepsy.

[4] = test system: THC-induced conditioned gaping; assay: THC-induced conditioned gaping behavior; format: in vivo; conditions: rats
Procedure: Three days after cannulation surgery, rats were adapted to the taste reactivity chamber. Rats were individually placed in a Taste Reaction (TR) chamber with their cannulas attached to an infusion pump to infuse water into their intraoral cavity over a period of 2 min at the rate of 1 ml/min and then returned to their home cage. Rats received the first of three daily conditioning trials three days after the adaptation trial. […] Rats received the pre-treatment drug 3 hours prior to conditioning via feeding tube. They were then placed in the TR chamber and infused with 0.1% saccharin solution for 2 min at a rate of 1 ml/min while orofacial reactions were recorded. Immediately following saccharin infusion, the rats were injected […] with 10 mg/kg THC or VEH and returned to their home cage. Twenty-four hour later, the rats underwent a drug free test trial where they were placed in the TR chamber and infused with 0.1% saccharin solution for 2 min at a rate of 1 ml/min and orofacial reactions were recorded.

[5] = test system: diet-induced obese (DIO) mouse model; assay: Repeated treatment: food intake and body weight in diet-induced obese (DIO) mice; format: in vivo
Procedure: Male C57BL/6J mice were fed ad libitum with a high-fat diet (HFD) for 8 weeks before the start of the pharmacological treatments. During pharmacological treatments, the HFD was maintained and food intake and body weight were measured daily. The food consumed was calculated by subtracting the food left in the hoppers from the initial pre-weighted amount. […] 3pMBP and rimonabant were administered by oral gavage once a day, two hours before the start of the dark phase of the light/dark cycle.

[6] = test system: human chromosome aberration; assay: Human Chromosome Aberration test +/- metabolic activation (GLP); format: cell-based; conditions: highest concentration tested between 74 and 100 μM
From the text: […].

[7] = in vitro; format: in vitro ADME, monkeys; conditions: monkey
[8] = Pharmacokinetics in plasma of dogs (LC/MS-MS); format: in vivo; conditions: for T1/2: manual linear regression on the last three points
[9] = Distribution in the brain of mice; format: in vivo
[10] = Distribution in the brain of rats; format: in vivo; conditions: rat, oral, 1.6 mg/kg, per os
Procedure: Distribution of 3pMBP in the brain was studied in mice and rats. In dogs, 3pMBP was also administered intravenously after solubilisation in cyclodextrine.

[11] = Metabolic stability in human liver microsomes (HLM); format: in vitro ADME; conditions: human LM, NADPH
Procedure: The investigation was performed on liver microsomes (LM) coming from mouse (MLM), rat (RLM), dog (DLM) and human (HLM).
3pMBP was incubated with liver microsome pools supplemented with NADPH as cofactor. Samples were taken at 5 different times (0, 10, 20, 30 and 60 minutes) and samples were monitored for parent compound disappearance in MRM mode using LC/MS-MS. The Intrinsic Clearance and half-life have been determined. Verapamil was used as reference compound.

[12] = test system: testosterone, DHEA and allopregnanolone; assay: Conversion in downstream steroids, rats (GC/MS-MS); format: in vivo; conditions: male and female rats; acute or repeated (28 days) 2, 9 and 36 mg/kg
Procedure: (§1) In all these studies plasma concentrations of steroids were measured by gas chromatography-tandem mass spectrometry (GC/MS-MS).

[13] = test system: testosterone, DHEA and allopregnanolone; assay: Conversion in downstream steroids, dogs (GC/MS-MS); format: in vivo; conditions: male and female dogs; acute or repeated (28 days) 2, 9 and 36 mg/kg
Procedure: as §1

[14] = biological target: UGT1A1 (Homo sapiens, UniProt P22309); assay: UGT1A1 inhibition (recombinant, scopoletin substrate) assay; format: in vitro ADME; conditions: 10 μM
Sequence of UGT1A1 (P22309 26-533): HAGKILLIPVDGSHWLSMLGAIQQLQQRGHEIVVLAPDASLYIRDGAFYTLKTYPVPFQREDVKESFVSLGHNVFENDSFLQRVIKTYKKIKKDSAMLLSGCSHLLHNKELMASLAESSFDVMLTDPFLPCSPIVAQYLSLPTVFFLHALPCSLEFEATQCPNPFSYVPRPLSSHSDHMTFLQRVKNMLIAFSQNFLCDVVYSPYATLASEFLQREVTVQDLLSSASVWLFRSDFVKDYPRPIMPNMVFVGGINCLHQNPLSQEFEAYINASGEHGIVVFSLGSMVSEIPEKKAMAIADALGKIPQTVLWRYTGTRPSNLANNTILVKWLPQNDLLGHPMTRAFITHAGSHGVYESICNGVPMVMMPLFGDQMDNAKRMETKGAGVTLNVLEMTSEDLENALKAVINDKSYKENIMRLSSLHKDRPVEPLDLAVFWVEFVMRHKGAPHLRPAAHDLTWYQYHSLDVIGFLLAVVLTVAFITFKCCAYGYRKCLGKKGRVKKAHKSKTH
Procedure: The reaction is initiated by adding the co-factor uridine-diphosphoglucuronic acid (UDPGA), the incubation is continued for 60 minutes and relative fluorescence intensity (RFI) is measured on a fluorescent plate reader.

[15] = test system: CYP1A2; assay: CYP induction (mRNA level); format: in vitro ADME; conditions: 10 nM, 100 nM and 1 μM
[16] = biological target: CYP 2B6 (Homo sapiens, UniProt P20813); assay: CYP inhibition in human liver microsomes; conditions: 10 μM
Sequence of CYP 2B6 (P20813 whole entry): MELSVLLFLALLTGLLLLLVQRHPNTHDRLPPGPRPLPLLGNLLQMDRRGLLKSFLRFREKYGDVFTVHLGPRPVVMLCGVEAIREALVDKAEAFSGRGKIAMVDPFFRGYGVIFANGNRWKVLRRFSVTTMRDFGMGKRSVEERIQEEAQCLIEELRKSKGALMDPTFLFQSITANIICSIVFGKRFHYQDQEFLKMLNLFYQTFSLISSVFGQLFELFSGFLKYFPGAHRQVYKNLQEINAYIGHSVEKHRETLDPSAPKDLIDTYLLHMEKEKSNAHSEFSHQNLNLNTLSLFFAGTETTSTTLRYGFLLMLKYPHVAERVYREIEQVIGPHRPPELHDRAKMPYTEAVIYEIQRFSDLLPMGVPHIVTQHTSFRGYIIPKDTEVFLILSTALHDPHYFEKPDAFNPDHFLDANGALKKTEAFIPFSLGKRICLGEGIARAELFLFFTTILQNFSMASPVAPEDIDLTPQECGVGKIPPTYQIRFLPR
From the text: (§2) Reaction was initiated by adding NADPH-generating compounds and after stopping of reaction and samples treatment; HPLC-UV/VIS and HPLC-MS/MS detection were used for detection of peak areas corresponding to the metabolite of each substrate.

[17] = biological target: CYP 2C9 (Homo sapiens, UniProt P11712); assay: CYP inhibition in human liver microsomes; conditions: 10 μM
Sequence of CYP 2C9 (P11712 whole entry): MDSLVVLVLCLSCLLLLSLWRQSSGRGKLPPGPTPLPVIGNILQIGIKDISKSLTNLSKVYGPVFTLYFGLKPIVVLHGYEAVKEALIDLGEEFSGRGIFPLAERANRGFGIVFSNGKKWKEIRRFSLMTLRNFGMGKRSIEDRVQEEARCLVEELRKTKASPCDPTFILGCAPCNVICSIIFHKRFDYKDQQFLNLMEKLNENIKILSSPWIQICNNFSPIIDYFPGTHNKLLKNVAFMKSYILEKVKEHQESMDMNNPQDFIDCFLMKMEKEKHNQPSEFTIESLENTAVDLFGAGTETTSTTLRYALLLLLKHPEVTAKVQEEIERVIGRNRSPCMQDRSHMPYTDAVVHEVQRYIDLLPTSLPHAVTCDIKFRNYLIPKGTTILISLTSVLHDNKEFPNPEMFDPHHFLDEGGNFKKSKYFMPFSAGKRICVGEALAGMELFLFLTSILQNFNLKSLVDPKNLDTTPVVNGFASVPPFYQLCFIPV
From the text: as §2

[18] = test system: THC-induced object recognition impairment; assay: THC-induced impairment of long-term memory (object recognition test); conditions: per os 3 h before THC 6 mg/kg ip; mice
From the text: Ten minutes before THC injection, mice were allowed to explore 2 identical objects in an “L”-shaped maze. The day after, one object was replaced by a novel one. […] The comparison of the time spent exploring the familiar and the novel objects is used as an index of discrimination between familiarity and novelty. Therefore, this parameter is used to evaluate object recognition performances.

[19] = 3 h prior to conditioning with THC 10 mg/kg

## COc1ccc(CO[C@H]2CC[C@@]3(C)C(=CC[C@H]4[C@@H]5CC[C@H](C(C)=O)[C@@]5(C)CC[C@@H]43)C2)cc1 [3pMBP, 3β-(4-methoxybenzyloxy)pregn-5-en-20-one]
[1]
  % inhibition: 100%
  ID100: 100 nM
[2]; 10 μM
  Modification of ligand binding: did not modify the binding of any of the 85 receptors; also recorded: did not modify the binding of these receptors or of any of the other receptors
[2]; receptor binding, 85 receptors, read-out: ID50 (the source's name)
  IC50: > 10 µM
[3]
  % inhibition: 50%
  ID50: 5 µg/kg
  ID100: 50 µg/kg
[4]; 0.005 and […], THC 10 mg/kg
  Establishment of conditioned gaping (mean number of gaping reactions): interfered the establishment of conditioned gaping by reducing the mean number of gaping reactions
[4]; [19]
  % inhibition: 50%
  ID50: <5 µg/kg
[5]; male mice, highest dose tested 15 mg/kg
  Inhibition of food-intake and body weight (repeated administration): Effect (3pMBP): at none of the dose tested did modify food intake or body weight and No
[5]; vs vehicle, Rimo 10 mg/kg ip, 3pMBP 0.005-15 mg/kg per os
  Food intake in obese mice: but not 3pMBP (0.005, 0.015, 0.05, 5 and 15 mg/kg; per os), decreases food intake
[6]
  Genotoxicity: did not show any cytotoxicity, genotoxicity and mutagenesis
[7]
  fraction unbound: 0.01 to 0.03
[8]
  bioavailability: 68%
[8]; both sexes, dog, plasma, oral, 0.7 mg/kg, read-out: bioavailability
  bioavailability: ~68%
[8]; both sexes, dog, po, per os, 0.7 mg/kg, plasma, read-out: Tmax
  Tmax: ~3 h
[8]; iv, 0.7 mg/kg, plasma
  AUClast: 2192 ng·h/mL
  Cmax: 505 ng/mL
  Tmax: 0.125 h
  T1/2: 35.9 h
[8]; per os, 0.7 mg/kg, plasma
  AUClast: 1452.5 ng·h/mL
  Cmax: 137.7 ng/mL
  Tmax: 2.67 h
  T1/2: 28.0 h
[9]; conclusion sentence, species and dose not stated
  AUC in the brain vs plasma: four times higher AUC in the brain than in the plasma
[9]; mice, per os
  tmax in the brain: 7 h
[10]
  Tmax: 7 h
[11]
  half-life: 6.83 h
[11]; read-out: intrinsic clearance
  microsomal CLint: 3.38 µL/min/mg
[12]
  Plasma concentrations of testosterone, DHEA and allopregnanolone: no effect
[13]
  Plasma concentrations of testosterone, DHEA and allopregnanolone: no effect
[14]
  Activity of UGT1A1: did not modify the activity
[15]
  Expression of CYP1A2: did not increase the expression
[16]
  Inhibition of CYP 2B6 activity: no significant inhibition
[17]
  Inhibition of CYP 2C9 activity: no significant inhibition
[18]
  % inhibition: 100%
  ID50: <5 µg/kg
